Assay results from patent US20230115476A1, “DIETARY BUTYRATE AND ITS USES” (SOCIETE DES PRODUITS NESTLE S.A., priority 2019, published 2023).

Tests used:
[1] = test system: rabbit gastric lipase (RGL) followed by porcine pancreatic lipase (PPL); experiment: Sequential in vitro digestion, simulated gastric fluid (SGF) then SIF, pH-stat; type: in vitro ADME
Protocol: (§1) 10 wt% oil in water emulsions stabilised by 0.3 wt% polyoxyethylene sorbitan mono-oleate (Tween® 80) were prepared by mixing the Tween 80 into the oil phase at 40° C., then mixing with the water phase using a magnetic stirrer. An emulsion was then created using a Hielscher UP 400S ultrasonic probe homogeniser equipped with a 5 mm diameter rod-like probe by applying 100% amplitude at 100% cycle for 2 minutes whilst the sample was cooled using ice water.
The lipid emulsion (2 mL) containing 200 mg of fat was subjected to gastrointestinal in vitro lipolysis. […] For gastric digestion, the sample was incubated for 90 minutes with 8.5 mL of simulated gastric fluid (SGF), which consisted of 150 mM NaCl, 450 U/mL pepsin, 18 U/mL rabbit gastric lipase at 37° C. and a pH of 5.5.
The intestinal digestion step was performed in the pH stat where the pH was kept constant at 6.8 by addition of NaOH (0.05 M). […] The intestinal digestion step starts when the temperature reaches 37 ± 0.5° C. The pH was adjusted to pH 6.8 and after incubation of two minutes at this pH and temperature, a pancreatin solution (5 mM tris, 150 mM NaCl at pH 6.8) was added. The final composition of the intestinal fluid was 10 mM CaCl2, 12 mM mixed bile salts, 0.75 mM phospholipid, 150 mM NaCl and 4 mM tris(hydroxymethyl)aminomethane buffer. The intestinal digestion step was carried out for 3 hours in a titration manager from Radiometer. During the intestinal phase of digestion, the kinetics of digestion were followed using a pH-stat (TIM856, Radiometer) technique and expressed as titratable acid (rather than fatty acid) that was calculated by the equation: […]
(§2) Since the digestion of dietary lipids involves lipases of both gastric and intestinal origin, lipid digestibility was assessed using two digestion models i) simulated intestinal fluid (SIF) with porcine pancreatic lipase (PPL) and ii) sequential digestion in simulated gastric fluid (SGF) with rabbit gastric lipase (RGL) followed by simulated intestinal fluid (SIF) with porcine pancreatic lipase (PPL).

[2] = test system: porcine pancreatic lipase (PPL); experiment: In vitro lipolysis in simulated intestinal fluid (SIF), pH-stat; type: in vitro ADME
Protocol: as §1
The lipid emulsion (2 mL) containing 200 mg of fat was subjected to gastrointestinal in vitro lipolysis. […]
The intestinal digestion step was performed in the pH stat where the pH was kept constant at 6.8 by addition of NaOH (0.05 M). […] During the intestinal phase of digestion, the kinetics of digestion were followed using a pH-stat (TIM856, Radiometer) technique and expressed as titratable acid (rather than fatty acid) that was calculated by the equation: […]
as §2

[3] = test system: Enterobacteriaceae, Salmonella; details: following oral streptomycin administration; Byndloss 2017, Rivera-Chavez 2016; cited from earlier work
colon epithelial cells = details: Gillis et al. 2018; cited from earlier work

Initial lipolysis rate in SIF ([1]; SGF-SIF sequential digestion, 90 min SGF pH 5.5 first): 44.1 ± 8.8 µmol/min | Lipolysis by gastric lipase ([1]; indicated by decreased total fatty acid release in SIF after RGL in SGF): ~ 60% | Hydrolysis in the stomach (gastric lipolysis) ([1]; overall conclusion in words): extensive hydrolysis in the stomach | Initial rate of lipolysis ([2]; SIF alone, emulsion with 200 mg fat, pH 6.8, 37° C.): 223 ± 59 µmol/min | Extent of digestion ([2]; back titration to pH 11.5, overall extent after SIF and SGF-SIF (FIG. 2)): 101.5 ± 0.9%
SMILES: CCCC(=O)OCC(COC(=O)CCC)OC(=O)CCC [tributyrin]
Effect on pathogen expansion [3]: restrict pathogen expansion | Effect on antibiotic-induced lactate production (colon epithelial cells): reduce antibiotic-induced lactate production
